The text below walks through data of patent publication US11185074B2, “Microbiocidal quinoline (thio)carboxamide derivatives” (SYNGENTA PARTICIPATIONS AG, priority 2017, dated 2021).

Usually melting point stands for the temperature, or range, at which the solid turns liquid.

For series [1], the system named is Magnaporthe grisea (Pyricularia oryzae). Kind of series: whole plant or invertebrate. Format: in vivo. The settings on record: foliar, read-out: control of Magnaporthe grisea.
Series [2] has as its system Sclerotinia sclerotiorum. The series can be described thus: Sclerotinia sclerotiorum / liquid culture (cottony rot). The settings on record: 72 h, read-out: control of Sclerotinia sclerotiorum.
Protocol: Sclerotinia sclerotiorum/Liquid Culture (Cottony Rot)
Mycelia fragments of a newly grown liquid culture of the fungus are directly mixed into nutrient broth (Vogels broth). After placing a (DMSO) solution of test compound into a microtiter plate (96-well format) the nutrient broth containing the fungal material is added. The test plates are incubated at 24° C. and the inhibition of growth is determined photometrically 3-4 days after application.
The subject of series [3] is Glomerella lagenarium (Colletotrichum lagenarium). Kind of series: Glomerella lagenarium (Colletotrichum lagenarium) / liquid culture (anthracnose). Format: cell-based. The conditions noted are these: Colletotrichum orbiculare; 20 ppm; liquid culture, inhibition of growth photometrically 3-4 days after application; compared to untreated control; read-out: control of Glomerella lagenarium.

The subject of series [4] is Botryotinia fuckeliana (Botrytis cinerea). The series can be described thus: Botryotinia fuckeliana (Botrytis cinerea) / liquid culture (gray mould). The format is cell-based. The conditions noted are these: 72 h, 20 ppm, liquid culture, inhibition of growth photometrically 3-4 days after application, compared to untreated control, read-out: control of Botryotinia fuckeliana.

Series [5] has as its system Fusarium culmorum. The series can be described thus: microbe, parasite or virus in culture. The format is cell-based. The conditions noted are these: read-out: control of Fusarium culmorum.
Series [6] relates to Monographella nivalis (Microdochium nivale). The series can be described thus: Monographella nivalis (Microdochium nivale) / liquid culture (foot rot cereals). The settings on record: 96 h, inhibition of growth photometrically 4-5 days after application, compared to untreated control. Format: cell-based.
In series [7] the test system is Magnaporthe grisea (Pyricularia oryzae). Kind of series: microbe, parasite or virus in culture. Format: cell-based. The settings on record: 72 h, read-out: control of Magnaporthe grisea.
Series [8] has as its system Fusarium culmorum. The series can be described thus: whole plant or invertebrate. The format is in vivo, Fusarium culmorum on wheat spikelets cv. Monsun. The conditions noted are these: in Triticum aestivum, read-out: control of Fusarium culmorum.
In series [9] the test system is Gibberella zeae (Fusarium graminearum). Kind of series: whole plant or invertebrate. The format is in vivo. The settings on record: in Triticum aestivum, 144 h, read-out: control of Gibberella zeae.

`C[C@@](CC1CCCC1)(CC(F)(F)F)NC(=O)c1cnc2c(F)cccc2c1` [F-4, N-[(1R)-1-(cyclopentylmeth-yl)-3,3,3-trifluoro-1-methyl-propyl]-8-fluoro-quinoline-3-carboxamide] registered a melting point of 100 to 101 °C. The pest or weed control at 200 ppm in series [1] was at least 80%. In addition, the inhibition of growth at 20 ppm in [2] is at least 80%. Further, in series [3], the inhibition of growth at 20 ppm is at least 80%. Also, in [4], the inhibition of growth at 20 ppm was at least 80%. For the same molecule, the inhibition of growth at 20 ppm in [5] was at least 80%. Besides, the inhibition of growth at 20 ppm in series [6] is at least 80%. For the same molecule, the inhibition of growth at 20 ppm in series [7] was at least 80%.

Regarding `CC1(C[C@@](C)(CC(F)(F)F)NC(=O)c2cnc3c(F)cccc3c2)CC1` [F-2, 8-fluoro-N-[(1S)-3,3,3-trifluoro-1-methyl-1-[(1-methylcyclo-propyl)meth-yl]propyl]quinoline-3-carboxamide], the pest or weed control at 200 ppm in series [1], in series [8] and in [9] was at least 80% each time. Moreover, the inhibition of growth at 20 ppm in series [3], in series [4], in series [5], in [6] and in series [7] was at least 80% each time.

On to `CC(CC1CCCCC1)(CC(F)(F)F)NC(=O)c1cnc2c(F)cccc2c1` (stereo not drawn) [E-62], for which the melting point was in the range of 55 to 76 °C. Further, the pest or weed control at 200 ppm in [1] was at least 80%. In series [2], the inhibition of growth at 20 ppm was at least 80%. Moreover, in series [3], the inhibition of growth at 20 ppm is at least 80%. Moreover, in series [4], the inhibition of growth at 20 ppm is at least 80%. Moreover, in series [5], the inhibition of growth at 20 ppm was at least 80%. In [6], the inhibition of growth at 20 ppm was at least 80%. Further, the inhibition of growth at 20 ppm in [7] is at least 80%.

In turn, `C=C(C)CC(C)(CC(=C)C)NC(=O)c1cnc2c(F)c(F)ccc2c1` [E-56] had a melting point of 117 to 120 °C. In addition, in series [1], the pest or weed control at 200 ppm was at least 80%. Also, the inhibition of growth at 20 ppm in series [2] is at least 80%. Moreover, in series [3], the inhibition of growth at 20 ppm was at least 80%. Further, in series [4], the inhibition of growth at 20 ppm was at least 80%. For the same molecule, in series [5], the inhibition of growth at 20 ppm is at least 80%. Moreover, the inhibition of growth at 20 ppm in series [6] was at least 80%. The inhibition of growth at 20 ppm in [7] is at least 80%.

Molecule `C=C(Cl)CC(C)(CC1CCCCC1)NC(=O)c1cnc2c(F)cccc2c1` (stereo not drawn) [E-37] returned a melting point of 109 to 111 °C. Further, in series [1], the pest or weed control at 200 ppm was at least 80%. Also, the inhibition of growth at 20 ppm in series [2] is at least 80%. In addition, the inhibition of growth at 20 ppm in series [3] is at least 80%. Also, the inhibition of growth at 20 ppm in [4] is at least 80%. Moreover, the pest or weed control at 200 ppm in series [8] is at least 80%. Moreover, in series [5], the inhibition of growth at 20 ppm was at least 80%. In series [6], this molecule gave an inhibition of growth at 20 ppm of at least 80%. Further, in series [7], the inhibition of growth at 20 ppm was at least 80%.

With `CC(CC1CCCC1)(CC(F)(F)F)NC(=O)c1cnc2c(F)cccc2c1` (stereo not drawn) [E-59], the melting point lay within 100 to 102 °C. For the same molecule, the pest or weed control at 200 ppm in [1] is at least 80%. Also, in [2], the inhibition of growth at 20 ppm is at least 80%. Moreover, the inhibition of growth at 20 ppm in series [3] is at least 80%. In addition, the inhibition of growth at 20 ppm in series [4] was at least 80%. For the same molecule, in [8], the pest or weed control at 200 ppm was at least 80%. The inhibition of growth at 20 ppm in [5] was at least 80%. The molecule further showed an inhibition of growth at 20 ppm in [6] of at least 80%. For the same molecule, the inhibition of growth at 20 ppm in series [7] was at least 80%. The pest or weed control at 200 ppm in series [9] was at least 80%.
